{
  "source": "patent US6413937B1",
  "about": "“Combinations for use in increasing the potency of a substrate for multidrug resistance related protein” (Dublin City University and Enterprise Ireland, priority 1996, dated 2002)",
  "key": {"A549 cell line": {"system": "A549 cell line", "experiment": "miniaturised in vitro colorimetric cell survival assay (acid phosphatase end-point), A549", "type": "cell-based, human", "settings": "alone or + Adriamycin 40 ng/ml", "procedure": "(§1) All the results presented in this Example for the DLKP, A549 and OAW42-SR cell lines were derived using the same miniaturised in vitro calorimetric assay system. On Day 1 of the assay 1000 cells/well/100 μl were plated into 96-well plates. Cells were allowed to attach overnight and cell viability was visually assessed. […] NSAID plus chemotherapeutic drug) to be analysed were added onto the cells. The individual drugs were added separately in 50 μl quantities (4× stocks, to take into account the dilution effect of having 200 μl final volume in each well). The drugs were left on the cells for five further days (Day 7) and cell number was determined using the acid phosphatase end-point assay which uses p-nitrophenol phosphate as substrate (Martin, A. and Clynes, M. (1991) In Vitro Dev. Biol., 27A, 183-184). On Day 7 the culture medium was removed from the cells and they were washed once with phosphate buffered saline (PBS). […] After the incubation period 50 μl of 1N NaOH was added to each well to develop the colour. The plates were then read at 405 nm (reference 620 nm) on an ELISA plate-reader. […] All results are the cell survival means ±S.D. from a minimum of three experiments."}, "DLKP cells": {"system": "DLKP cells", "experiment": "Example 5 miniaturised in vitro cell toxicity assay, DLKP", "type": "cell-based, human", "procedure": "For the monolayer cell lines miniaturised in vitro assays were used to determine drug toxicity. On Day I cells were seeded at 1×10^3 cells/well in a 96-well plate and left to attach overnight. Drug was added on Day 2, and the assay was terminated on Day 7. Cell number was then evaluated by using one of two colorimetric end-point […]: the acid phosphatase assay (Martin, A., and Clynes, M. (1991); In vitro Cell and Development Biology, 27A: 183-184) or the crystal violet dye elution assay (Martin, A., and Clynes, M. (1993); Cytotechnology, 11:49-58). All assays were performed in triplicate."}, "MRP pump": {"biological_target": "T1, MRP pump (Homo sapiens, UniProt P33527)", "T1 construct": "inside-out plasma membrane vesicles prepared from HL60ADR cells; endogenous in cells; host or cells: HL60ADR cells (plasma membrane vesicles)", "T1 sequence (P33527 whole entry)": "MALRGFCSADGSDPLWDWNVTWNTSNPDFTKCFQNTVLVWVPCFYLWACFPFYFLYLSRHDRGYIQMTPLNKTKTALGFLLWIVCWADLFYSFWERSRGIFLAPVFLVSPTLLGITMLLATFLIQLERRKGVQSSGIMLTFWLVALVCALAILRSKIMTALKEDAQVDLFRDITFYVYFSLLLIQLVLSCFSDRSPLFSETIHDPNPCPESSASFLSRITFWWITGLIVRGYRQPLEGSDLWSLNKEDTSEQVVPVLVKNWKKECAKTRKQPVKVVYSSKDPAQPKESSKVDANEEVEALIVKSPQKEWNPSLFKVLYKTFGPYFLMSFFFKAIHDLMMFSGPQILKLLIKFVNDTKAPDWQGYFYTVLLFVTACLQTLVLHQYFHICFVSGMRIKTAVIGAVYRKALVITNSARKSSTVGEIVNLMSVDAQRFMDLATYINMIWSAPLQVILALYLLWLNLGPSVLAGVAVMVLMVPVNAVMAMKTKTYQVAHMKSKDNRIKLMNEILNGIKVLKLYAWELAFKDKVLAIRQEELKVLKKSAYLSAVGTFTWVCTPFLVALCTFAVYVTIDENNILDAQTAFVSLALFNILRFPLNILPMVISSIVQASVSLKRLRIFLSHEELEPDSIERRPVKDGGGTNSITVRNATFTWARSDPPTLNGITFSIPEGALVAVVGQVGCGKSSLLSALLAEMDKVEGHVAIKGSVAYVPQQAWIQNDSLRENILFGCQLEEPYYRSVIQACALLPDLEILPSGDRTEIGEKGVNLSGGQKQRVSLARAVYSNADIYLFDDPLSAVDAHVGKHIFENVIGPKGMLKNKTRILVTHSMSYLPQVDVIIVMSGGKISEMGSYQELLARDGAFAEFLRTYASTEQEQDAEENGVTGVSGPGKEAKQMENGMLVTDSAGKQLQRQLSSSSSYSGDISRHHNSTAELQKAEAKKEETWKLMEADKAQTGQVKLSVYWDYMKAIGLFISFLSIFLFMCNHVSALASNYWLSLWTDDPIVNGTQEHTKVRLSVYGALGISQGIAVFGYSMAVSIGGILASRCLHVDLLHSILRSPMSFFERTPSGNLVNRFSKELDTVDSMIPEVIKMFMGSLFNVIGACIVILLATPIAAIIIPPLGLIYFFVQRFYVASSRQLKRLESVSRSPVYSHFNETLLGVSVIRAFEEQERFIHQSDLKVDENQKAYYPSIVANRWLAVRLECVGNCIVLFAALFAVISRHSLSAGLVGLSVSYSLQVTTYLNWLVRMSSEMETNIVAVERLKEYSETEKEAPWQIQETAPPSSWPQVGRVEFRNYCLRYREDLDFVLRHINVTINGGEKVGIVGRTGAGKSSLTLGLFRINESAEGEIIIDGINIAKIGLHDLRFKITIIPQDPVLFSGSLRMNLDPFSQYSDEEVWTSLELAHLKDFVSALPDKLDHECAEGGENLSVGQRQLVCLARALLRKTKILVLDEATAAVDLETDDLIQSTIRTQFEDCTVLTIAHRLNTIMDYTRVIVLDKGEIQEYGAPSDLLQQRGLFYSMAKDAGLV", "experiment": "ATP-dependent transport of [3H]LTC4 into inside-out plasma membrane vesicles from HL60ADR cells", "type": "biochemical", "settings": "for MRP-pump inhibitory activity: conclusion from Table 4", "procedure": "To determine if the NSAIDs were acting directly on the MRP pump the uptake of [^3H]LTC4 into inside-out plasma membrane vesicles prepared from HL60ADR cells was examined using a rapid filtration procedure (Ishikawa,T., et al. (1994); J. Biol. Chem. 269 (46); 29085-29093). ATP-dependent transport of [^3H]LTC4 into the membrane vesicles was measured by a rapid filtration method using a Millipore sampling manifold. The membrane vesicles were thawed at 37° C. before use and kept on ice. The reaction components consisted of 0.25 M sucrose/10 mM Tris.HCl pH 7.4/1 mM ATP/10 mM MgCl2/10 mM creatine phosphate/ 110 μg/ml creatine kinase and 10 nM [^3H]LTC4, with 50 μg of the inside-out vesicle preparation, in a final volume of 110 μl. This suspension was incubated at 37° C., with gentle mixing, and aliquots, 20 μl, were taken at the indicated points. Those aliquots were diluted in 1 ml of ice-cold incubation buffer before being applied to 0.22 μm Millipore GSWP nitrocellulose filters, pre-soaked in ice-cold incubation buffer, under suction. The filters were subsequently washed with 3 ml ice-cold incubation buffer, and absorbed radioactivity was measured using a scintillation counter (Beckman). In control experiments ATP was replaced with 5μ-AMP to determine the ATP-dependent transport."}, "[1]": {"system": "GST prepared from DLKP cells", "experiment": "total GST assay with 1-chloro-2,4-dinitrobenzene", "type": "biochemical, human", "procedure": "The other NSAIDs were tested in a total GST assay (Habig, W. H., and Jakoby, W. B., (1981); Methods Enzymol., 77: 218-231). Total cellular GST activity was assayed, using 1-chloro-2,4-dinitrobenzene as a substrate, according to the method of Habig, W. H., and Jakoby, W. B., (1981); supra. Due to spectrophotometric interference at 340 nm, caused by the majority of the NSAIDs, the assays were all performed at 360 nm, without any apparent effect on the rate of the control reaction The results are shown in Table 5."}, "MRP-specific substrates": {"system": "MRP-specific substrates", "experiment": "screen for enhancement of toxicity of MRP substrates by NSAIDs", "type": "cell-based", "settings": "summary statements"}, "GSTs": {"system": "GSTs", "settings": "cited from earlier work"}, "DLKP cell line": {"system": "DLKP cell line", "experiment": "miniaturised in vitro colorimetric cell survival assay (acid phosphatase end-point), DLKP", "type": "cell-based, human", "procedure": "as §1"}, "[2]": {"system": "COR L23 P (non-MRP) cells", "settings": "doxorubicin 10 mg/ml alone or with sulindac 20 mg/ml, 1, 2, 4 h, FIG. 4", "quoted_text": "10^6 COR L23 P (parental non-MRP resistant, MRP−) or COR L23 R (MRP resistant, MRP+) cells were added to 75 cm^3 vented flasks containing HEPES buffered Rosemount Park Memorial Institute (RPMI) medium and maintained at 37° C. in a 5% CO2 atmosphere. […] After three days of growth, doxorubicin (final concentration 10 mg/ml), sulindac (final concentration 20 mg/ml) or doxorubicin and sulindac were added to individual flasks. Samples were taken after 1, 2 and 4 h. and assayed for drug content.\nThe contents of each flask were washed twice with 5 ml of PBS and stored at −70° C. The flasks were thawed and 100 μl of water and 100 μl of 33% silver nitrate added to each and mixed for 5 min. […]\nThe extract was resuspended in 50 μl of methanol in the sample vial and loaded into the HPLC autosampler. […] The mobile phases were pumped through a C18 reversed-phase Ultrasphere XL (Beckman) HPLC column (4.6×70 mm) with absorbance measured at 253 nm. […] The amount of doxorubicin and sulindac present was quantified by measuring the peak height of these drugs and the internal standard. […] The concentration of doxorubicin in the samples was calculated from the) nd development standard line using the peak height ratio. The sulindac concentrations were calculated by the same method."}, "[3]": {"settings": "read-out: % inhibition of transport of [3H]LTC4"}},
  "note": "“Also recorded” adds a separate entry of the source.",
  "data": [
    {"smiles": "COc1ccc2c(c1)c(CC(=O)O)c(C)n2C(=O)c1ccc(Cl)cc1", "note": "[Indomethacin, indomethacin]", "values": [
      {"measurement": "% cell survival", "setting": "A549 cell line; ix) Indomethacin 0.60 μg/ml", "value": "92.38 ± 13.30", "unit": "%"},
      {"measurement": "% cell survival", "setting": "A549 cell line; ix) Indomethacin 1.20 μg/ml", "value": "87.54 ± 13.07", "unit": "%"},
      {"measurement": "% cell survival", "setting": "A549 cell line; ix) Indomethacin 2.40 μg/ml", "value": "92.18 ± 7.09", "unit": "%"},
      {"measurement": "% cell survival", "setting": "DLKP cells; Indomethacin 0.6 μg/ml, alone or + Teniposide 6.25 ng/ml", "value": "102.06 ± 5.11", "unit": "%"},
      {"measurement": "% cell survival", "setting": "DLKP cells; Indomethacin 1.25 μg/ml, alone or + Teniposide 6.25 ng/ml", "value": "101.28 ± 5.12", "unit": "%"},
      {"measurement": "% cell survival", "setting": "DLKP cells; Indomethacin 2.5 μg/ml, alone or + Teniposide 6.25 ng/ml", "value": "96.18 ± 3.43", "unit": "%"},
      {"measurement": "MRP-pump inhibitory activity", "setting": "MRP pump", "value": "have MRP-pump inhibitory activity"},
      {"measurement": "inhibition at 49 µM", "setting": "MRP pump; [3]", "value": 20, "unit": "%"},
      {"measurement": "inhibition at 98 µM", "setting": "MRP pump; [3]", "value": 70, "unit": "%"},
      {"measurement": "% Inhibition of GST", "setting": "[1]; 0.4 mM", "value": 54, "unit": "%"},
      {"measurement": "enhancement of toxicity of MRP substrates", "setting": "MRP-specific substrates", "value": "positive; also recorded: have been found to enhance the toxicity of MRP-specific substrates"},
      {"measurement": "inhibition of GSTs", "setting": "GSTs", "value": "inhibitor of GSTs"}
    ]},
    {"smiles": "CC1=C(CC(=O)O)c2cc(F)ccc2/C1=C\\c1ccc([S+](C)[O-])cc1", "note": "(stereo not drawn) [Sulindac, sulindac]", "values": [
      {"measurement": "% cell survival", "setting": "DLKP cell line; ii) Sulindac 1.5 μg/ml, alone or + Vincristine 1.0 ng/ml", "value": "111.6 ± 9.7", "unit": "%"},
      {"measurement": "% cell survival", "setting": "DLKP cell line; ii) Sulindac 3 μg/ml, alone or + Vincristine 1.0 ng/ml", "value": "108.45 ± 10.6", "unit": "%"},
      {"measurement": "% cell survival", "setting": "DLKP cell line; ii) Sulindac 6 μg/ml, alone or + Vincristine 1.0 ng/ml", "value": "114.1 ± 3.9", "unit": "%"},
      {"measurement": "% cell survival", "setting": "DLKP cell line; iii) Sulindac 1.5 μg/ml, alone or + VP-16 100 ng/ml", "value": "95.07 ± 1.6", "unit": "%"},
      {"measurement": "% cell survival", "setting": "DLKP cell line; iii) Sulindac 3 μg/ml, alone or + VP-16 100 ng/ml", "value": "93.68 ± 2.0", "unit": "%"},
      {"measurement": "% cell survival", "setting": "DLKP cell line; iii) Sulindac 6 μg/ml, alone or + VP-16 100 ng/ml", "value": "90.75 ± 3.3", "unit": "%"},
      {"measurement": "% cell survival", "setting": "DLKP cell line; iv) Sulindac 1.5 μg/ml, alone or + 5-FU 0.5 μg/ml", "value": "99.70 ± 7.7", "unit": "%"},
      {"measurement": "% cell survival", "setting": "DLKP cell line; iv) Sulindac 3 μg/ml, alone or + 5-FU 0.5 μg/ml", "value": "98.79 ± 8.8", "unit": "%"},
      {"measurement": "% cell survival", "setting": "DLKP cell line; iv) Sulindac 6 μg/ml, alone or + 5-FU 0.5 μg/ml", "value": "93.61 ± 5.9", "unit": "%"},
      {"measurement": "% cell survival", "setting": "DLKP cell line; vii) Sulindac 1.5 μg/ml, alone or + PAT 1.5 μg/ml", "value": "96.51 ± 5.3", "unit": "%"},
      {"measurement": "% cell survival", "setting": "DLKP cell line; vii) Sulindac 3.0 μg/ml, alone or + PAT 1.5 μg/ml", "value": "99.99 ± 2.9", "unit": "%"},
      {"measurement": "% cell survival", "setting": "DLKP cell line; vii) Sulindac 6.0 μg/ml, alone or + PAT 1.5 μg/ml", "value": "94.23 ± 1.2", "unit": "%"},
      {"measurement": "% cell survival", "setting": "A549 cell line; xi) Sulindac 1.50 μg/ml", "value": "100.00 ± 13.20", "unit": "%"},
      {"measurement": "% cell survival", "setting": "A549 cell line; xi) Sulindac 3.20 μg/ml", "value": "101.00 ± 12.14", "unit": "%"},
      {"measurement": "% cell survival", "setting": "A549 cell line; xi) Sulindac 6.30 μg/ml", "value": "96.01 ± 5.36", "unit": "%"},
      {"measurement": "% cell survival", "setting": "DLKP cells; Sulindac 1.5 μg/ml, alone or + Epirubicin 1 ng/ml", "value": "99.92 ± 3.3", "unit": "%"},
      {"measurement": "% cell survival", "setting": "DLKP cells; Sulindac 3.0 μg/ml, alone or + Epirubicin 1 ng/ml", "value": "100.29 ± 3.2", "unit": "%"},
      {"measurement": "% cell survival", "setting": "DLKP cells; Sulindac 6.0 μg/ml, alone or + Epirubicin 1 ng/ml", "value": "100.07 ± 3.6", "unit": "%"},
      {"measurement": "inhibition at 45 µM", "setting": "MRP pump; 45 μM", "value": 25, "unit": "%"},
      {"measurement": "inhibition at 89 µM", "setting": "MRP pump; 89 μM", "value": 69, "unit": "%"},
      {"measurement": "MRP-pump inhibitory activity", "setting": "MRP pump", "value": "have MRP-pump inhibitory activity"},
      {"measurement": "% Inhibition of GST", "setting": "[1]; 0.25 mM", "value": 42.6, "unit": "%"},
      {"measurement": "enhancement of toxicity of MRP substrates", "setting": "MRP-specific substrates", "value": "have been found to enhance the toxicity of MRP-specific substrates"},
      {"measurement": "doxorubicin level in the cells", "setting": "[2]", "value": "regardless of the co-treatment with sulindac"}
    ]}
  ]
}
